We go through 15 compounds from patent US8435980B2 (AbbVie Inc., priority 2009, dated 2013).

For this assay, the target named is T1, Cdc7 (BEV coexpressed huCDC7/DBF4) (Homo sapiens, UniProt O00311).
T1 construct: made in house; host or cells: BEV (baculovirus expression vector) co-expression; insect cells are implied but no cell line is named
T1 sequence (O00311 whole entry): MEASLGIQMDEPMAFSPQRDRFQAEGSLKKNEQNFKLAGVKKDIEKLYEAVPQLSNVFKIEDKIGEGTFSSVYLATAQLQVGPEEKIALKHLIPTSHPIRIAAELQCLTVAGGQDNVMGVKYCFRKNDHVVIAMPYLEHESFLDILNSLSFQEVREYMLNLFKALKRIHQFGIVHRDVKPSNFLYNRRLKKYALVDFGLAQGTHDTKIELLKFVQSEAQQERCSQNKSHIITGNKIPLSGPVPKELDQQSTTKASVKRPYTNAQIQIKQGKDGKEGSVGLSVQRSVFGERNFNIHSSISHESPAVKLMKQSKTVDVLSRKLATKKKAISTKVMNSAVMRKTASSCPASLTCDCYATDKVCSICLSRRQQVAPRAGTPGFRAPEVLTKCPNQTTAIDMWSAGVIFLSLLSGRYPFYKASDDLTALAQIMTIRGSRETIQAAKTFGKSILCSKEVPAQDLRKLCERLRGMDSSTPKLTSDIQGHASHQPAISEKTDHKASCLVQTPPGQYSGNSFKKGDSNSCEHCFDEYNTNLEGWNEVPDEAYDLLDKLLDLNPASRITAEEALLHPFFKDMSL
T1 sequence (Q9UBU7 whole entry partner): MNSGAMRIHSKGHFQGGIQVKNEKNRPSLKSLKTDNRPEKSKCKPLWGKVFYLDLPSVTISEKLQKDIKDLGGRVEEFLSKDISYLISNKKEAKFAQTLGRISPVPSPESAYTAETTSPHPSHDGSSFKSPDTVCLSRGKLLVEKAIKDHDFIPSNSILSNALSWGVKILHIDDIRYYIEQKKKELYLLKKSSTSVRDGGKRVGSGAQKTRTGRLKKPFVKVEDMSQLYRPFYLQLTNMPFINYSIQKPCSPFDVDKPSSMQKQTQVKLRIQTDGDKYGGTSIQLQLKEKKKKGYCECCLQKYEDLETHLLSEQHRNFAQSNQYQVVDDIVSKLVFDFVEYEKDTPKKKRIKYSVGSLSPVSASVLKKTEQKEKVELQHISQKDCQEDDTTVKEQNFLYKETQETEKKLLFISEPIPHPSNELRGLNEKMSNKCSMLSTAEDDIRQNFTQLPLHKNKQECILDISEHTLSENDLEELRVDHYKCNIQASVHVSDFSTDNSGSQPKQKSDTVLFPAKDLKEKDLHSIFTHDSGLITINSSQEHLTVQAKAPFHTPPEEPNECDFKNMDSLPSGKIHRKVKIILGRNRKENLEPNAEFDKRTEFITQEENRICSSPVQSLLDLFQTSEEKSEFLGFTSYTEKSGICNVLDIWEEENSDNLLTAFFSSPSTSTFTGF
The experiment in a line: Cdc7 enzyme inhibition assay ([33P]ATP, biotinylated peptide substrate, FlashPlate). It counts as biochemical. To be noted: Table 3; enzyme inhibition data (Ki). As to the method: Cdc7 (BEV coexpressed huCDC7/DBF4) is prepared internally. Cdc7 assays are conducted as follows with final concentrations as listed. […] Reactions are quenched after 1 hr by the addition of 90 μL stop buffer (50 mM EDTA, 2M NaCl). […] (Ki) for exemplary compounds.
By Ki is commonly meant the equilibrium dissociation constant of an inhibitor or competing ligand from its target. High values mean a looser hold on the target, low ones a stronger hold on the target. As for `Clc1cc(-c2c[nH]c3ncccc23)cc(NCCc2c[nH]c3ccccc23)n1` [Example 405, 6-chloro-N-[2-(1H-indol-3-yl)ethyl]-4-(1H-pyrrolo[2,3-b]pyridin-3-yl)pyridin-2-amine], the Ki is below 10 nM.

For the compound `Cc1cccc(CN2CC(C(=O)N[C@H]3CC[C@H](Nc4cc(-c5c[nH]c6ncccc56)cc(Cl)n4)CC3)C2)c1C` [Example 406, N-(trans-4-{[6-chloro-4-(1H-pyrrolo[2,3-b]pyridin-3-yl)pyridin-2-yl]amino}cyclohexyl)-1-(2,3-dimethylbenzyl)azetidine-3-carboxamide], the Ki was below 10 nM.

The compound `O=C(N[C@H]1CC[C@H](Nc2cc(-c3c[nH]c4ncccc34)cc(Cl)n2)CC1)C1CN(Cc2ccc3cc[nH]c3c2)C1` [Example 407, N-(trans-4-{[6-chloro-4-(1H-pyrrolo[2,3-b]pyridin-3-yl)pyridin-2-yl]amino}cyclohexyl)-1-(1H-indol-6-ylmethyl)azetidine-3-carboxamide] returned a Ki below 10 nM.

`Clc1cc(-c2c[nH]c3ncccc23)cc(Nc2ccc(OCc3ccccc3)cc2)n1` [Example 408, N-[4-(benzyloxy)phenyl]-6-chloro-4-(1H-pyrrolo[2,3-b]pyridin-3-yl)pyridin-2-amine] yielded a Ki below 10 nM.

The compound `Clc1cc(-c2c[nH]c3ncccc23)cc(NCc2nc3ccccc3[nH]2)n1` [Example 409, N-(1H-benzimidazol-2-ylmethyl)-6-chloro-4-(1H-pyrrolo[2,3-b]pyridin-3-yl)pyridin-2-amine] came in with a Ki below 10 nM.

The compound `Clc1cc(-c2c[nH]c3ncccc23)cc(NCc2ccc3[nH]ccc3c2)n1` [Example 410, 6-chloro-N-(1H-indol-5-ylmethyl)-4-(1H-pyrrolo[2,3-b]pyridin-3-yl)pyridin-2-amine] gave a Ki below 10 nM.

Compound `COc1ccc(Nc2cc(-c3c[nH]c4ncccc34)cc(Cl)n2)cc1` [Example 411, 6-chloro-N-(4-methoxyphenyl)-4-(1H-pyrrolo[2,3-b]pyridin-3-yl)pyridin-2-amine] yielded a Ki below 10 nM.

`COc1cc(Nc2cc(-c3c[nH]c4ncccc34)cc(Cl)n2)cc(OC)c1OC` [Example 412, 6-chloro-4-(1H-pyrrolo[2,3-b]pyridin-3-yl)-N-(3,4,5-trimethoxyphenyl)pyridin-2-amine] yielded a Ki below 10 nM.

`Clc1cc(-c2c[nH]c3ncccc23)cc(Nc2ccc(-n3ccnc3)cc2)n1` [Example 413, 6-chloro-N-[4-(1H-imidazol-1-yl)phenyl]-4-(1H-pyrrolo[2,3-b]pyridin-3-yl)pyridin-2-amine] had a Ki below 10 nM.

On to `COc1ccc(CNc2cc(-c3c[nH]c4ncccc34)cc(Cl)n2)cc1OC` [Example 414], for which the Ki is below 10 nM.

Take `OC(CNc1cc(-c2c[nH]c3ncccc23)cc(Cl)n1)c1ccccc1` (stereo not drawn) [Example 415, 2-{[6-chloro-4-(1H-pyrrolo[2,3-b]pyridin-3-yl)pyridin-2-yl]amino}-1-phenylethanol]: the inhibitory constant (Ki) was below 10 nM.

The compound `Clc1cc(-c2c[nH]c3ncccc23)cc(NCCCc2ccccc2)n1` [Example 416, 6-chloro-N-(3-phenylpropyl)-4-(1H-pyrrolo[2,3-b]pyridin-3-yl)pyridin-2-amine] returned a Ki below 10 nM.

In turn, `CS(=O)(=O)c1ccc(CNc2cc(-c3c[nH]c4ncccc34)cc(Cl)n2)cc1` [Example 417, 6-chloro-N-[4-(methylsulfonyl)benzyl]-4-(1H-pyrrolo[2,3-b]pyridin-3-yl)pyridin-2-amine] had a Ki below 10 nM.

As for `CSc1ccc(Nc2cc(-c3c[nH]c4ncccc34)cc(Cl)n2)cc1` [Example 418, 6-chloro-N-[4-(methylsulfanyl)phenyl]-4-(1H-pyrrolo[2,3-b]pyridin-3-yl)pyridin-2-amine], the Ki was below 10 nM.

Consider `Clc1cc(-c2c[nH]c3ncccc23)cc(Nc2ccc(Oc3ccccc3)cc2)n1` [Example 419, 6-chloro-N-(4-phenoxyphenyl)-4-(1H-pyrrolo[2,3-b]pyridin-3-yl)pyridin-2-amine], for which the Ki was below 10 nM.
